In article PMC8041433 (Environmental Health Perspectives, 2021):
“And” between values parts separate entries of the source, which are not always exact repeats. Equal entries are not always repeated. Where two headings read alike, the source gives them in different places.

Experiments:
[1] = target: AChE in neural stem cells (Homo sapiens, UniProt P22303); experiment: cell-based
recombinant human AChE [2] = target: T1, recombinant human AChE (Homo sapiens, UniProt P22303); for IR or R: key: Reversible (R); Irreversible (IR); ND, not detected in enzyme-based AChE inhibition assay from current study
recombinant human AChE [3] = target: T1, recombinant human AChE; experiment: biochemical
AChE in SH-SY5Y cells = AChE in SH-SY5Y cells (Homo sapiens, UniProt P22303); experiment: cell-based
recombinant human AChE [4] = target: T1, recombinant human AChE; experiment: biochemical; format: biochemical; details: for AC50: AC50 (uM)
recombinant human AChE [5] = target: T1, recombinant human AChE; experiment: biochemical; remark: listed apart in the source
[6] = target: AChE in neural stem cell spheroids (Homo sapiens, UniProt P22303); experiment: cell-based; details: for IC50: potency (IC50)
[7] = target: AChE in SH-SY5Y spheroids (Homo sapiens, UniProt P22303); experiment: cell-based; details: potency (IC50)
recombinant human AChE [8] = target: T1, recombinant human AChE; experiment: biochemical; remark: listed apart in the source
[9] = potency (IC50), Enzyme with microsomes
[10] = potency (IC50), SH-SY5Y cells monolayer
[11] = Neural stem cell spheroid (48 h)
[12] = Neural stem cell spheroid (24 h)

Chain of AChE in neural stem cells (P22303 32-614): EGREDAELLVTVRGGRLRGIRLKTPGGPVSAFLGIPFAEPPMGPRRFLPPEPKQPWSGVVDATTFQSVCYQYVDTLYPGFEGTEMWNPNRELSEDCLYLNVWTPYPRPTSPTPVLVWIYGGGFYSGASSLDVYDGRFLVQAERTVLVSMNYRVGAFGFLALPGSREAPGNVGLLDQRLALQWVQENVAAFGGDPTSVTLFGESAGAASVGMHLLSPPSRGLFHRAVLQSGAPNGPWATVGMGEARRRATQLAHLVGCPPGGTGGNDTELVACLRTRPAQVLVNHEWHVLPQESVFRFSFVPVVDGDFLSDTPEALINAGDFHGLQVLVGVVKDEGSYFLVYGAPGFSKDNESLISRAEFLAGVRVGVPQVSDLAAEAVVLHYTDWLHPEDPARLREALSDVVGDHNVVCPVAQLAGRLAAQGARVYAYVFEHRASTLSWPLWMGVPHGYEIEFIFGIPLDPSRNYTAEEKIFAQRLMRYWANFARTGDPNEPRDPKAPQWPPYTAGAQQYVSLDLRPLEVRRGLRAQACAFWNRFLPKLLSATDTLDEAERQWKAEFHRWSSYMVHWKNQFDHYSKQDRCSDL
Chain of AChE in SH-SY5Y cells (P22303 32-614): as above
T1 sequence (P22303 32-614): as above
Chain of AChE in SH-SY5Y spheroids (P22303 32-614): as above
Chain of AChE in neural stem cell spheroids (P22303 32-614): as above

| Compound | IC50 [1] [µM] | CC-v2 (curve classes) (recombinant human AChE [2]) | Efficacy (recombinant human AChE [2]) | IC50 (recombinant human AChE [3]; [9]) [µM] | CC-v2 (curve classes) (AChE in SH-SY5Y cells) | IC50 (AChE in SH-SY5Y cells; IC50 (uM)) | IC50 (AChE in SH-SY5Y cells; [10]) [µM] | IR or R (recombinant human AChE [4]) | AC50 (recombinant human AChE [4]) | CC-v2 (curve classes) (recombinant human AChE [5]) | Efficacy (recombinant human AChE [5]) | IC50 (recombinant human AChE [5]; potency (IC50), Enzyme) [µM] | IC50 [6, 11] [µM] | IC50 ([7]; SH-SY5Y spheroids (24 h)) [µM] | IC50 ([7]; SH-SY5Y spheroids (48 h)) [µM] | IC50 (recombinant human AChE [8]) [µM] | IC50 [6, 12] [µM] | other results |
| --- | --- | --- | --- | --- | --- | --- | --- | --- | --- | --- | --- | --- | --- | --- | --- | --- | --- | --- |
| CCN(C(=O)c1cc(C)cc(OC[C@H](C)Nc2ccncc2)c1)C(C)C.Cc1ccc(S(=O)(=O)O)cc1 [GW473178E methyl benzene sulfonic acid] | 24.8 | -2.2 | -52.62 | 18.9 | -1.1 | 12.5 µM and 11.1 µM | 23.3 | R | 11 µM (2×) and 19.6 µM and 9.82 µM (3×) and 8.76 µM and 12.4 µM | -2.1 | -70.195 | 10.6 | 31.2 | 9.63 | 24 | 19.7 ± 2.26 | – | IC50 (recombinant human AChE [3]; IC50 (uM)): 49.7 µM; IC50 (recombinant human AChE [5]; IC50 (uM)): 22.2 µM; potency (IC50), Neural stem cell spheroid (24 h) [6]: Inactive |
| O=c1[nH]c2ccc([S+]([O-])CCN3CCC(Cc4ccc(F)cc4)CC3)cc2o1 (stereo not drawn) [Besonprodil, reference compound] | 15.8 ± 1.81 | -2.1 | -73.433 | 15.8 ± 1.81 | -1.1 | 6.33 µM | 8.57 ± 1.17 | R | 14 µM (2×) and 9.93 µM (2×) and 15.7 µM (2×) and 7.03 µM | -1.1 | -92.894 | 7.92 ± 0.91 | – | 4.75 ± 3.24 | 7.44 ± 1.68 | 16.4 ± 1.11 | 11.5 ± 3.7 | potency (IC50), Neural stem cell spheroid (48 h) [6]: Inactive |
| CNC(=O)ON=C(CSC)C(C)(C)C [Thiofanox] | 4.83 ± 0.82 | -1.1 | -91.728 | 2.59 ± 0.17 | -1.1 | 1.59 µM and 1.78 µM | 3.04 ± 0.41 | – | 2.8 µM and 4.44 µM and 4.98 µM and 3.95 µM and 2.22 µM and 1.4 µM and 1.98 µM | -1.1 | -92.082 | 1.91 ± 0.26 | 3.64 | 6.89 ± 6.18 | 3.46 ± 0.86 | 3.18 ± 0.59 | 2.83 ± 0.59 | – |
| CCOP(=S)(OCC)SCn1nnc2ccccc2c1=O [Azinphos-ethyl] | 4.79 | -1.1 | -98.316 | 2.14 | -1.1 | 12.6 µM and 11.2 µM and 15.9 µM | 10.9 | – | 49.8 µM (2×) and 55.9 µM (2×) and 70.3 µM and 39.5 µM and 44.4 µM | -2.1 | -105.247 | 42.8 | 4.36 | 25.2 | 12 | 22.5 ± 4.21 | 2.23 | – |
| CC/N=c1\cc2oc3cc(NCC)c(C)cc3c(-c3ccccc3C(=O)OCC)c-2cc1C [Rhodamine 6G] | 30.5 | -2.2 and -2.1 | – | 41.3 | -1.1 | 8.94 µM and 6.31 µM and 7.1 µM and 7.07 µM and 7.96 µM and 8.91 µM | 12.4 | R | – | -1.1 | – | 22.8 | 40.3 | 15.8 | 9.25 | 41.2 ± 2.79 | 29.7 | AC50 (recombinant human AChE [4]; activity_5): 39.5 µM and 35.2 µM and 28 µM; AC50 (recombinant human AChE [4]; activity_10): 39.5 µM and 49.8 µM and 35.2 µM; AC50 (recombinant human AChE [4]; activity_60): 25 µM and 35.2 µM |
| CCOC(=O)CC(SP(=O)(OC)OC)C(=O)OCC (stereo not drawn) [Malaoxon] | 5.86 ± 1.05 | -2.1 | – | 4.43 | -1.1 | 3.56 µM and 3.02 µM and 3.17 µM and 2.83 µM | 3.05 ± 0.52 | – | 22.2 µM (2×) and 9.93 µM and 7.89 µM and 25 µM and 8.85 µM (2×) and 5.59 µM and 11.1 µM | -1.1 | – | 1.46 | 9.46 | 4.09 ± 3.42 | 3.95 | 4.62 ± 0.31 | 5.05 ± 3.3 | – |
| COP(=S)(Oc1cc(Cl)c(Br)cc1Cl)c1ccccc1 (stereo not drawn) [Leptophos] | 58.1 | -1.1 | -83.877 | 2.31 | -2.1 | 63.3 µM and 71 µM and 79.6 µM | 28 | – | 31.4 µM and 62.7 µM (3×) and 39.5 µM and 35.2 µM and 55.9 µM | -3 | -64.129 | 46.4 | 69 | 54.6 | 44.6 | 48 ± 3.13 | 36.5 | – |
| Cc1cc(OC(=O)N(C)C)nn1C(=O)N(C)C [Dimetilan] | 4.45 ± 0.51 | -2.1 | -61.098 | 9.97 ± 1.14 | -1.1 | 7.1 µM | 6.89 ± 3.77 | R | 49.8 µM (2×) and 31.4 µM and 19.8 µM (2×) and 55.9 µM and 12.5 µM and 5.59 µM and 14 µM | -1.1 | -84.168 | 16 ± 3.66 | 3.12 ± 1.72 | 15.8 ± 16.9 | 7.03 | 11.6 ± 1.49 | 1.53 ± 0.26 | – |
